Measurements published in patent US20150105252A1, “SUBSTITUTED PYRAZOLES AS HERBICIDES” (E I DU PONT DE NEMOURS AND COMPANY, priority 2013, published 2015).

How the values were obtained:
pigweed = experiment: Test C postemergence; type: in vivo, Amaranthus retroflexus; conditions: postemergence
In short: (§1)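 Pre- and postemergence greenhouse screen; vehicle was a non-phytotoxic solvent mix with surfactant. Preemergence: treatment applied right after sowing into loam and sand. Postemergence: treated at 1–4 leaves. Visual rating at 13–15 days, 100 = complete control.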

kochia = experiment: Test C postemergence; type: in vivo, Kochia scoparia
In short: as §1

rice = experiment: Test B flood; type: in vivo, Oryza sativa; conditions: 250 g ai/ha, visual rating on 0 to 100 scale (0 no effect, 100 complete control), 13 to 15 days
In short: (§2)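 At two leaves, seedlings received the test compound via the paddy water, pots having been flooded 3 cm over the soil surface and kept so. Greenhouse-held for 13 to 15 days, then judged by eye against controls on a scale running 0 (no effect) to 100 (complete control).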

barnyardgrass [1] = experiment: Test B flood; type: in vivo, Echinochloa crus-galli; conditions: 250 g ai/ha, visual rating on 0 to 100 scale (0 no effect, 100 complete control), 13 to 15 days
In short: as §2

foxtail, giant = experiment: Test A preemergence; type: in vivo, Setaria faberii; conditions: preemergence
In short: (§3)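 Scoring was visual, on a scale where 100 means complete control and 0 means no effect, comparing treated with untreated plants around 10 days post-application. Compounds in surfactant-containing non-phytotoxic solvent were sprayed onto soil preemergence or onto one- to two-leaf seedlings (2–10 cm) postemergence.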

oilseed rape = experiment: Test C postemergence; type: in vivo, Brassica napus; conditions: postemergence
In short: as §1

nutsedge, yellow = experiment: Test C postemergence; type: in vivo, Cyperus esculentus
In short: as §1

velvetleaf = experiment: Test C postemergence; type: in vivo, Abutilon theophrasti; conditions: postemergence, 250 g ai/ha; scale 0 to 100 (0 no effect, 100 complete control)
In short: as §1

lambsquarters = experiment: Test C postemergence; type: in vivo, Chenopodium album
In short: as §1

barnyardgrass [2] = experiment: Test A postemergence; type: in vivo, Echinochloa crus-galli
In short: as §3

johnsongrass = experiment: Test C postemergence; type: in vivo, Sorghum halepense
In short: as §1

oat, wild = experiment: Test C postemergence; type: in vivo, Avena fatua
In short: as §1

ducksalad = experiment: Test B flood; type: in vivo, Heteranthera limosa; conditions: 250 g ai/ha, visual rating on 0 to 100 scale (0 no effect, 100 complete control), 13 to 15 days
In short: as §2

waterhemp = experiment: Test C preemergence; type: in vivo, Amaranthus rudis; conditions: preemergence
In short: as §1

[3] = 250 g ai/ha, scale 0 to 100 (0 no effect, 100 complete control)
[4] = 125 g ai/ha, scale 0 to 100, 0 no effect, 100 complete control
[5] = Postemergence, 31 g ai/ha, visually evaluated after 13 to 15 days
[6] = postemergence, 62 g ai/ha, scale 0 to 100
[7] = postemergence, 250 g ai/ha, scale 0 to 100 (0 no effect, 100 complete control)
[8] = postemergence, 125 g ai/ha, scale 0 to 100, 0 no effect, 100 complete control

CCOc1cc(C(=O)NC2CC2)nn1Cc1ccnc(C(F)(F)F)c1 [Compound 189]
Pigweed plant response rating (pigweed; 62 g ai/ha, scale 0 to 100): 75 | Plant response rating, Pigweed (pigweed; [3]): 90 | Plant response rating, Pigweed (pigweed; [4]): 85 | Plant response rating (scale of 0 to 100 where 0 is no effect and 100 is complete control), Kochia (kochia; [5]): 85 | Kochia plant response rating (kochia; [6]): 90 | Plant response rating, Kochia (kochia; [7]): 90 | Plant response rating, Kochia (kochia; [8]): 90 | Plant response rating, Rice (rice): 45 | Plant response rating, Barnyardgrass (barnyardgrass [1]): 60 | Foxtail, Giant plant response rating (0 to 100 scale) (foxtail, giant; 125 g ai/ha, visual injury approx. 10 days after treatment): 100 | Foxtail, Giant plant response rating (foxtail, giant; 500 g ai/ha, visual injury after approx. 10 days, 0 to 100 scale (0 no effect, 100 complete control)): 100 | Oilseed Rape plant response rating (oilseed rape; 62 g ai/ha, scale 0 to 100): 60 | Plant response rating, Oilseed Rape (oilseed rape; [3]): 90 | Plant response rating, Oilseed Rape (oilseed rape; [4]): 65 | Plant response rating (scale of 0 to 100 where 0 is no effect and 100 is complete control), Nutsedge, Yellow (nutsedge, yellow; [5]): 5 | Nutsedge, Yellow plant response rating (nutsedge, yellow; [6]): 5 | Plant response rating, Nutsedge, Yellow (nutsedge, yellow; [7]): 20 | Plant response rating, Nutsedge, Yellow (nutsedge, yellow; [8]): 5 | Plant response rating, Velvetleaf (velvetleaf): 75 | Plant response rating (scale of 0 to 100 where 0 is no effect and 100 is complete control), Lambsquarters (lambsquarters; [5]): 60 | Lambsquarters plant response rating (lambsquarters; [6]): 70 | Plant response rating, Lambsquarters (lambsquarters; [7]): 85 | Plant response rating, Lambsquarters (lambsquarters; [8]): 95 | Barnyardgrass plant response rating (barnyardgrass [2]; Postemergence, 500 g ai/ha, 0 to 100 scale (0 no effect, 100 complete control)): 90 | Barnyardgrass plant response rating (barnyardgrass [2]; postemergence, 125 g ai/ha, about 10 days, visual rating on 0 to 100 scale (0 no effect, 100 complete control)): 90 | Plant response rating (scale of 0 to 100 where 0 is no effect and 100 is complete control), Johnsongrass (johnsongrass; [5]): 0 | Johnsongrass plant response rating (johnsongrass; [6]): 15 | Plant response rating, Johnsongrass (johnsongrass; [7]): 35 | Plant response rating, Johnsongrass (johnsongrass; [8]): 5 | Plant response rating (scale of 0 to 100 where 0 is no effect and 100 is complete control), Oat, Wild (oat, wild; [5]): 10 | Oat, Wild plant response rating (oat, wild; [6]): 15 | Plant response rating, Oat, Wild (oat, wild; [7]): 60 | Plant response rating, Oat, Wild (oat, wild; [8]): 30 | Plant response rating, Ducksalad (ducksalad): 85 | Waterhemp plant response rating (waterhemp; 31 g ai/ha, visual rating, scale 0 to 100 (0 no effect, 100 complete control), 13 to 15 days): 100 | Waterhemp plant response rating (waterhemp; 62 g ai/ha, scale 0 to 100 (0 no effect, 100 complete control), 13 to 15 days): 100 | Plant response rating, Waterhemp (waterhemp; 125 g ai/ha, 13 to 15 days, scale 0 to 100, 0 = no effect, 100 = complete control): 100 | Waterhemp plant response rating (waterhemp; 250 g ai/ha, scale 0 to 100, 0 is no effect, 100 is complete control): 100
